Measured values reported in US20050118678A1, “Modified polypeptides with therapeutic activity and methods of use” (priority 2003, published 2005).
Residues, ends and D or L forms follow the SMILES beside them. No end group written: not given here. *: point of attachment. Stearoyl = CCCCCCCCCCCCCCCCCC(=O)*; Lauroyl = CCCCCCCCCCCC(=O)*

Experiments:
[1] = test system: drug-resistant strains of S. aureus (W73134 and M49780); assay: Example 2 antibacterial effect on drug-resistant strains; format: cell-based; settings: W73134 and M49780, FIG. 15 and 16
P. aeruginosa Type I = settings: pH 7
B. anthracis = settings: cell survival by optical density at 650 nm
E. coli 055:B5 LPS = assay: Limulus amoebocyte lysate assay for LPS neutralization; format: biochemical; settings: for IC50: 0.04 unit E. coli 055:B5 LPS, chromogenic QCL-1000 kit, read-out: LPS Binding (IC50); for LPS binding activity, fold higher than the SC4 peptide: relative to SC4
Procedure: Limulus amoebocyte lysate assay for lipopolysaccharide (LPS) neutralization. The ability of SC4 peptide and amphiphiles to neutralize endotoxin was measured using the chromogenic QCL-1000 kit from BioWhittaker, Inc. (Walkersville, Md). This method is quantitative for Gram-negative bacterial endotoxin (LPS) and uses peptide inhibition of LPS-mediated activation of a proenzyme as a measure of activity (Young et al., J. Clin. Invest. 51, 1790-1797 (1972)). Peptides of the appropriate concentration were mixed with Limulus amoebocyte lysate, 0.04 unit (0.01 nanogram (ng)) of E. coli 055:B5 LPS (SIGMA), and a colorless synthetic substrate (Ac-Ile-Glu-Ala-Arg-pNA) (SEQ ID NO: 18). Peptide binding to LPS was determined by monitoring enzymatic conversion of the substrate to yellow p-nitroaniline (pNA) via absorption at 410 nm. Endotoxin concentration was determined from the initial rate of enzyme activation. IC50 (concentration displaying 50% inhibition) values for LPS binding were determined by fitting to a dose-response curve.

human red blood cells = settings: for Hemolysis (LD50): red cells of human, 1 h
S. pyogenes Wilson = settings: pH 7
S. pyogenes Eaton = settings: pH 7
S. aureus MN8 = settings: MN8, pH 7
E. coli J96 = settings: J96, pH 7
bacteria = assay: Example 3 antibacterial activity of lauric acid conjugates; format: cell-based; settings: lauric acid conjugate vs unconjugated peptide
Text: The hemolytic activity of the KAK and AKK peptides and conjugates was low. […] Fatty acid conjugation will improve the usefulness of peptides as antimicrobial agents by enhancing their ability to form secondary structures upon interacting with the bacterial membranes.

E. coli IA2 = settings: IA2, pH 7
S. aureus MNHO = settings: pH 7
[2] = test system: MN8, Hoch, Knutson, FR1722, and RN6390; assay: Example 2 antibacterial effect on five Gram-positive strains; format: cell-based; settings: FIG. 10-14
[3] = test system: erythrocytes (hemolytic activity); settings: cited from earlier work

| Compound | Hemolytic activity (eukaryotic cell) | Bactericidal Activity (LD50) P. aeruginosa Type I (P. aeruginosa Type I) | Bactericidal Activity (LD50) B. anthracis (B. anthracis) | Hemolysis (LD50) (human red blood cells) | Bactericidal Activity (LD50) S. pyogenes Wilson (S. pyogenes Wilson) | Bactericidal Activity (LD50) S. pyogenes Eaton (S. pyogenes Eaton) | Bactericidal Activity (LD50) S. aureus W73134 (S. aureus W73134) | Bactericidal Activity (LD50) S. aureus MN8 (S. aureus MN8) | Bactericidal Activity (LD50) E. coli J96 (E. coli J96) | Bactericidal Activity (LD50) S. aureus M49780 (S. aureus M49780) | Bactericidal Activity (LD50) E. coli IA2 (E. coli IA2) | Bactericidal Activity (LD50) S. aureus MNHO (S. aureus MNHO) | also measured |
| --- | --- | --- | --- | --- | --- | --- | --- | --- | --- | --- | --- | --- | --- |
| C[C@H](NC(=O)[C@H](C)NC(=O)[C@H](CCCCN)NC(=O)[C@H](C)NC(=O)[C@H](C)NC(=O)[C@H](CCCCN)NC(=O)[C@H](CCCCN)NC(=O)[C@H](C)NC(=O)[C@H](C)NC(=O)[C@H](CCCCN)NC(=O)[C@H](C)NC(=O)[C@H](C)NC(=O)[C@H](CCCCN)NC(=O)[C@H](CCCCN)NC(=O)[C@H](C)NC(=O)[C@H](C)NC(=O)CNC(=O)[C@@H](N)Cc1ccc(O)cc1)C(=O)O [AKK, YGAA[KKAAKAA](2), reference compound] (H-YGAAKKAAKAAKKAAKAA-OH) | low |  |  |  |  |  |  |  |  |  |  |  |  |
| CCCCCCCCCCCC(=O)N[C@@H](CCCCN)C(=O)N[C@@H](CC(C)C)C(=O)N[C@@H](Cc1ccccc1)C(=O)N[C@@H](CCCCN)C(=O)N[C@@H](CCCNC(=N)N)C(=O)N[C@@H](Cc1c[nH]cn1)C(=O)N[C@@H](CC(C)C)C(=O)N[C@@H](CCCCN)C(=O)N[C@@H](Cc1c[nH]c2ccccc12)C(=O)N[C@@H](CCCCN)C(=O)N[C@H](C(=O)N[C@H](C(N)=O)[C@@H](C)CC)[C@@H](C)CC [C12-SC4] (Lauroyl-KLFKRHLKWKII-NH2) |  | 0.035 µM | 3.25 µM | 6.2 µM | 0.16 µM | 0.066 µM | 0.62 µM | 0.68 µM | 0.077 µM | 0.66 µM | 0.079 µM | 0.34 µM | Killing of drug-resistant S. aureus strains [1]: killed both drug-resistant strains; Change in hemolytic activity on fatty acid conjugation (eukaryotic cell): large increase in hemolytic activity; IC50 (E. coli 055:B5 LPS): 230 nM; LPS binding activity, fold higher than the SC4 peptide (E. coli 055:B5 LPS): approximately 3 fold; Antimicrobial activity relative to unconjugated peptide (bacteria): increased antimicrobial activity |
| CCCCCCCCCCCCCCCCCC(=O)N[C@@H](CCCCN)C(=O)N[C@@H](CC(C)C)C(=O)N[C@@H](Cc1ccccc1)C(=O)N[C@@H](CCCCN)C(=O)N[C@@H](CCCNC(=N)N)C(=O)N[C@@H](Cc1c[nH]cn1)C(=O)N[C@@H](CC(C)C)C(=O)N[C@@H](CCCCN)C(=O)N[C@@H](Cc1c[nH]c2ccccc12)C(=O)N[C@@H](CCCCN)C(=O)N[C@H](C(=O)N[C@H](C(N)=O)[C@@H](C)CC)[C@@H](C)CC [C18-SC4] (Stearoyl-KLFKRHLKWKII-NH2) |  | 0.042 µM | 2.23 µM | 1.9 µM | 0.13 µM | 0.11 µM | 0.10 µM | 0.11 µM | 0.23 µM | 0.24 µM | 0.19 µM | 0.068 µM | Killing of drug-resistant S. aureus strains [1]: killed both drug-resistant strains; IC50 (E. coli 055:B5 LPS): 82 nM; LPS binding activity, fold higher than the SC4 peptide (E. coli 055:B5 LPS): ~6 fold; Hemolytic activity, fold more hemolytic than C12-SC4 (human red blood cells): roughly 3 fold; Increase in antibacterial effect relative to SC-4 [2]: ten to twenty fold increases |
| C[C@H](NC(=O)[C@H](CCCCN)NC(=O)[C@H](C)NC(=O)[C@H](C)NC(=O)[C@H](CCCCN)NC(=O)[C@H](C)NC(=O)[C@H](CCCCN)NC(=O)[C@H](C)NC(=O)[C@H](C)NC(=O)[C@H](CCCCN)NC(=O)[C@H](C)NC(=O)[C@H](C)NC(=O)[C@H](CCCCN)NC(=O)[C@H](C)NC(=O)[C@H](CCCCN)NC(=O)[C@H](C)NC(=O)CNC(=O)[C@@H](N)Cc1ccc(O)cc1)C(=O)O [KAK, YG[AKAKAAKA](2), reference compound] (H-YGAKAKAAKAAKAKAAKA-OH) | low |  |  |  |  |  |  |  |  |  |  |  |  |
| CC[C@H](C)[C@H](NC(=O)[C@@H](NC(=O)[C@H](CCCCN)NC(=O)[C@H](Cc1c[nH]c2ccccc12)NC(=O)[C@H](CCCCN)NC(=O)[C@H](CC(C)C)NC(=O)[C@H](Cc1c[nH]cn1)NC(=O)[C@H](CCCNC(=N)N)NC(=O)[C@H](CCCCN)NC(=O)[C@H](Cc1ccccc1)NC(=O)[C@H](CC(C)C)NC(=O)[C@@H](N)CCCCN)[C@@H](C)CC)C(N)=O [SC4, KLFKRHLKWKII, reference compound] (H-KLFKRHLKWKII-NH2) |  | 0.028 µM | >15 µM | >375 µM | >1.0 µM | >2.0 µM | 2.3 µM | 1.3 µM | 0.12 µM | 2.0 µM | 0.21 µM | 2.3 µM | Concentration up to which little hemolytic activity was demonstrated (human red blood cells): > 400 µM; Concentration below which no hemolytic activity is shown [3]: ≥ 100 µM |
| conjugated AKK: AKK peptide YGAA[KKAAKAA](2) conjugated with lauric acid (YGAAKKAAKAA; numbers in words are those of the source; also: dimer [KKAAKAA](2), lauric acid conjugate, place not given here) | low |  |  |  |  |  |  |  |  |  |  |  | Antimicrobial activity relative to unconjugated peptide (bacteria): increased antimicrobial activity |
| conjugated KAK: KAK peptide YG[AKAKAAKA](2) conjugated with lauric acid (YGAKAKAAKA; numbers in words are those of the source; also: dimer [AKAKAAKA](2), lauric acid conjugate, place not given here) | low |  |  |  |  |  |  |  |  |  |  |  |  |
